Calls of active or inactive are those of the source. The calls are words filed in the database; no cut-off is given here.
Key:
[1] = Cytotoxicity against human HCT116 cells after 72 hrs by sulforhodamine B assay; format: functional, cell-based, HCT-116
[2] = tested on: HT-29; test: Cytotoxicity against human HT-29 cells after 72 hrs by sulforhodamine B assay; format: functional, cell-based
[3] = biological target: T1, DNA topoisomerase 1 (Homo sapiens) (UniProt P11387); test: Inhibition of topoisomerase 1 (unknown origin) at 100 uM using supercoiled pBR322 DNA substrate by ethidium bromide staining based electrophoresis method
T1 sequence (whole entry): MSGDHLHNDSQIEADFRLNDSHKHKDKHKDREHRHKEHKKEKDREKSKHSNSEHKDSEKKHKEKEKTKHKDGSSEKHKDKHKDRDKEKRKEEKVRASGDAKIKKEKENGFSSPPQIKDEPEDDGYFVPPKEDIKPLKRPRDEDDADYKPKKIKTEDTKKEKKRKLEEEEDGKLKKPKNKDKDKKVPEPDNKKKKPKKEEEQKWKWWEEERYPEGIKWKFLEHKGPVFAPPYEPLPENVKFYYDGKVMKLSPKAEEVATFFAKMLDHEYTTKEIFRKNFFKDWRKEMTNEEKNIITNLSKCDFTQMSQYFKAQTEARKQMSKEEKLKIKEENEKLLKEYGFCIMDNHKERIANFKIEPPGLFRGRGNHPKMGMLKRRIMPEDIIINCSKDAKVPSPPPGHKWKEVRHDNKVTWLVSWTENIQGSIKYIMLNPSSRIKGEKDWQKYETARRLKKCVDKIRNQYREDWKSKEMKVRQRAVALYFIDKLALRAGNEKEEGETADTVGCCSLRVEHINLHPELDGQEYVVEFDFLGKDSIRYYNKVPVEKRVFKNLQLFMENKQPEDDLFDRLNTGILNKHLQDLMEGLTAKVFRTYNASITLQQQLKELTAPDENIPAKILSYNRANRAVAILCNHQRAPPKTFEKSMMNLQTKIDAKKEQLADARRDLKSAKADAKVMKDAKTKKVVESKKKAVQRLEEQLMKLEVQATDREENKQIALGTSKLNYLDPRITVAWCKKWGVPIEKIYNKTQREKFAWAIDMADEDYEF

[4] = biological target: T1, DNA topoisomerase 1 (Homo sapiens); test: Inhibition of topoisomerase 1 (unknown origin) at 10 uM using supercoiled pBR322 DNA substrate by ethidium bromide staining based electrophoresis method
[5] = Inhibition of survivin protein expression in human HCT116 cells at 1 nM after 48 hrs by Western blot method; format: functional, cell-based; conditions: HCT-116
[6] = Inhibition of survivin protein expression in human HCT116 cells at 5 nM after 48 hrs by Western blot method; format: functional, cell-based; conditions: HCT-116
[7] = Stability in human plasma assessed as lactone moieties level at 1 uM incubated at 37 degC after 3 hrs by HPLC method; format: ADME, cell-free; conditions: read-out: Stability
[8] = tested on: HCT-116; test: Potency index, ratio of IC50 for SN38 to IC50 for compound against human HCT116 cells after 72 hrs by sulforhodamine B assay; format: functional
[9] = tested on: Mus musculus; test: Toxicity in human HT-29 cells xenografted mouse assessed as body weight level at 15 mg/kg, iv dosed three times per week to the end of treatment measured on day 3 (reference value: 20.7 +/- 1.2 g); format: organism-based; design: dose 15 mg/kg, route intravenous; conditions: in vivo
[10] = tested on: Mus musculus; test: Toxicity in human HT-29 cells xenografted mouse assessed as body weight level at 15 mg/kg, iv dosed three times per week to the end of treatment measured on day 7 (reference value: 21.7 +/- 1 g); format: organism-based; design: dose 15 mg/kg, route intravenous; conditions: in vivo
[11] = tested on: Mus musculus; test: Toxicity in human HT-29 cells xenografted mouse assessed as body weight level at 15 mg/kg, iv dosed three times per week to the end of treatment measured on day 10 (reference value: 22.4 +/- 1.3 g); format: organism-based; design: dose 15 mg/kg, route intravenous; conditions: in vivo
[12] = tested on: Mus musculus; test: Toxicity in human HT-29 cells xenografted mouse assessed as body weight level at 15 mg/kg, iv dosed three times per week to the end of treatment measured on day 14 (reference value: 22.7 +/- 1.5 g); format: organism-based; design: dose 15 mg/kg, route intravenous; conditions: in vivo
[13] = tested on: Mus musculus; test: Toxicity in human HT-29 cells xenografted mouse assessed as body weight level at 15 mg/kg, iv dosed three times per week to the end of treatment measured on day 17 (reference value: 22 +/- 1.7 g); format: organism-based; design: dose 15 mg/kg, route intravenous; conditions: in vivo
[14] = tested on: Mus musculus; test: Toxicity in human HT-29 cells xenografted mouse assessed as body weight level at 15 mg/kg, iv dosed three times per week to the end of treatment measured on day 21 (reference value: 21.2 +/- 1.6 g); format: organism-based; design: dose 15 mg/kg, route intravenous; conditions: in vivo
[15] = tested on: Mus musculus; test: Toxicity in human HT-29 cells xenografted mouse assessed as lethal toxicity at 15 mg/kg, iv dosed three times per week to the end of treatment; format: organism-based; design: dose 15 mg/kg, route intravenous; conditions: in vivo
[16] = tested on: HT-29; test: Antitumor activity against human HT-29 cells xenografted in mouse assessed as relative tumor increment rate at 15 mg/kg, iv dosed three times per week to the end of treatment relative to untreated control; format: functional

SMILES: CC[C@]1(O)c2cc3n(c(=O)c2COC(=O)[C@H]1OC(C)=O)Cc1c-3nc2ccc(OC)cc2c1-c1ccncc1
- IC50 ([1]; Homo sapiens, HCT-116, 72 h): 7.99 nM
- IC50 ([2]; Homo sapiens, HT-29, 72 h): 31 nM
- inhibition [3]: Active
- inhibition [4]: Active

SMILES: CC[C@]1(O)c2cc3n(c(=O)c2COC(=O)[C@H]1OC)Cc1cc2cc4c(cc2nc1-3)OCO4
- IC50 ([1]; Homo sapiens, HCT-116, 72 h): 0.2 nM
- IC50 ([2]; Homo sapiens, HT-29, 72 h): 0.3 nM
- inhibition [3]: Active
- inhibition [4]: Active
- inhibition [5]: Active
- inhibition [6]: Active

SMILES: CC[C@]1(O)c2cc3n(c(=O)c2COC(=O)[C@H]1OC)Cc1c-3nc2cc3c(cc2c1-c1ccncc1)OCO3 [listing 1 of 2 here]
- inhibition [3]: Active
- inhibition [5]: Active
- inhibition [6]: Active

SMILES: CCc1c2c(nc3ccc(O)cc13)-c1cc3c(c(=O)n1C2)COC(=O)[C@]3(O)CC [7-ETHYL-10-HYDROXYCAMPTOTHECIN]
- IC50 ([1]; Homo sapiens, HCT-116, 72 h): 4.28 nM
- IC50 ([2]; Homo sapiens, HT-29, 72 h): 18.5 nM
- remaining at 3 h, 1 µM [7]: 20%

SMILES: CC[C@]1(O)c2cc3n(c(=O)c2COC(=O)[C@H]1OC)Cc1c-3nc2cc3c(cc2c1-c1ccncc1)OCO3 [listing 2 of 2 here]
- IC50 ([1]; hct-116): 0.215 nM
- IC50 ([2]; ht-29): 1.27 nM
- Ratio IC50 [8]: 20

SMILES: CC[C@]1(O)c2cc3n(c(=O)c2COC(=O)[C@H]1OC(C)=O)Cc1c-3nc2ccccc2c1-c1ccncc1
- IC50 ([1]; Homo sapiens, HCT-116, 72 h): 2.95 nM
- IC50 ([2]; Homo sapiens, HT-29, 72 h): 11.4 nM
- inhibition [3]: inactive

SMILES: CCc1c2c(nc3ccc(OC(=O)N4CCC(N5CCCCC5)CC4)cc13)-c1cc3c(c(=O)n1C2)COC(=O)[C@]3(O)CC [IRINOTECAN]
- Activity [9]: 19.9 g
- Activity [10]: 20.8 g
- Activity [11]: 21.6 g
- Activity [12]: 22.4 g
- Activity [13]: 22.3 g
- Activity [14]: 21.3 g
- Activity [15]: Non-toxic
- T/C [16]: 42.22%

SMILES: CC[C@]1(O)c2cc3n(c(=O)c2COC(=O)[C@H]1OC)Cc1cc2cc(O)ccc2nc1-3
- IC50 ([1]; Homo sapiens, HCT-116, 72 h): 4.46 nM
- IC50 ([2]; Homo sapiens, HT-29, 72 h): 26.7 nM
- inhibition [3]: Active
- inhibition [4]: Active

SMILES: CC[C@]1(O)c2cc3n(c(=O)c2COC(=O)[C@H]1OC)Cc1cc2ccccc2nc1-3
- IC50 ([1]; Homo sapiens, HCT-116, 72 h): 1.72 nM
- IC50 ([2]; Homo sapiens, HT-29, 72 h): 4.79 nM
- inhibition [3]: Active
- inhibition [4]: Active

SMILES: CC[C@]1(O)c2cc3n(c(=O)c2COC(=O)[C@H]1OC)Cc1c-3nc2ccc(OC)cc2c1C1CCN(C)CC1
- IC50 ([1]; Homo sapiens, HCT-116, 72 h): 8.23 nM
- IC50 ([2]; Homo sapiens, HT-29, 72 h): 27.1 nM
- inhibition [3]: Active
- inhibition [4]: Active

SMILES: CC[C@]1(O)c2cc3n(c(=O)c2COC(=O)[C@H]1OC)Cc1c-3nc2ccccc2c1-c1cn(C)cn1
- IC50 ([1]; Homo sapiens, HCT-116, 72 h): 1.26 nM
- IC50 ([2]; Homo sapiens, HT-29, 72 h): 4.11 nM
- inhibition [3]: Active
- inhibition [4]: Active

SMILES: CC[C@]1(O)c2cc3n(c(=O)c2COC(=O)[C@H]1OC(C)=O)Cc1c-3nc2ccccc2c1-c1cn(C)cn1
- IC50 ([1]; Homo sapiens, HCT-116, 72 h): 1.47 nM
- IC50 ([2]; Homo sapiens, HT-29, 72 h): 9.11 nM
- inhibition [3]: Active
- inhibition [4]: Active

SMILES: CC[C@]1(O)c2cc3n(c(=O)c2COC(=O)[C@H]1OC(C)=O)Cc1c-3nc2ccccc2c1C1CCN(C)CC1
- IC50 ([1]; Homo sapiens, HCT-116, 72 h): 9.74 nM
- IC50 ([2]; Homo sapiens, HT-29, 72 h): 63.8 nM
- inhibition [3]: Active
- inhibition [4]: Active

SMILES: CC[C@]1(O)c2cc3n(c(=O)c2COC(=O)[C@H]1OC)Cc1c-3nc2ccccc2c1-c1ccncc1
- IC50 ([1]; Homo sapiens, HCT-116, 72 h): 2.12 nM
- IC50 ([2]; Homo sapiens, HT-29, 72 h): 7.18 nM
- inhibition [3]: Active
- inhibition [4]: Active

SMILES: CC[C@]1(O)c2cc3n(c(=O)c2COC(=O)[C@H]1OC)Cc1c-3nc2ccccc2c1C1CCN(C)CC1
- IC50 ([1]; Homo sapiens, HCT-116, 72 h): 3.23 nM
- IC50 ([2]; Homo sapiens, HT-29, 72 h): 17.2 nM
- inhibition [3]: Active
- inhibition [4]: Active

SMILES: CC[C@]1(O)c2cc3n(c(=O)c2COC(=O)[C@H]1OC)Cc1c-3nc2ccc(OC)cc2c1-c1ccncc1
- IC50 ([1]; Homo sapiens, HCT-116, 72 h): 3.33 nM
- IC50 ([2]; Homo sapiens, HT-29, 72 h): 6.76 nM
- inhibition [3]: Active
- inhibition [4]: Active

SMILES: CC[C@]1(O)c2cc3n(c(=O)c2COC(=O)[C@H]1OC(C)=O)Cc1c-3nc2ccc(OC)cc2c1C1CCN(C)CC1
- IC50 ([1]; Homo sapiens, HCT-116, 72 h): 13.2 nM
- IC50 ([2]; Homo sapiens, HT-29, 72 h): 54.7 nM
- inhibition [3]: Active
- inhibition [4]: Active

From ChEMBL document CHEMBL3400135, “Design, synthesis and biological evaluation of novel homocamptothecin analogues as potent antitumor agents” (Bioorg Med Chem, 2015)
